# Reference: patent US9718813B2, “Imidazolin-5-one derivative useful as FASN inhibitors for the treatment of cancer” (Janssen Pharmaceutica, NV, priority 2013, dated 2017)
# Key:
# [1] = biological target: hFASN enzyme (full length) (Homo sapiens (Human), UniProt P49327); assay: Fatty Acid Synthase (FASN) Inhibition Scintillation Proximity Assay; assay type: biochemical; conditions: 3H-acetyl-CoA and malonyl-CoA substrates, SPA, mean if tested more than once
# Description: In this assay, inhibition of FASN activity is measured using ^3H-acetyl-CoA and malonyl-CoA as substrates. ^3H-Acetyl CoA is converted to ^3H-palmitate through a series of reactions by the FASN protein, which contains 7 functional domains and carries out 7 enzymatic reactions to ultimately produce ^3H-palmitate. The assay principle is based upon the fact that ^3H-acetyl-CoA is hydrophilic and the end product, ^3H-palmitate is hydrophobic.
# 10 μL assay buffer (100 mM KH2PO4 pH 7.5, 1 mM DTT) (20 μL in blanks) was added to a 384-well white Opti Plate plate (Perkin Elmer). 0.9 μL test compound (at concentrations of 30 μM, 10 μM, 3 μM, 1 μM, 0.30 μM, 0.10 μM, 0.03 μM and 0.01 μM)/DMSO and 10 μL hFASN enzyme (full length, 300 ng, purified in house) or 10 μL assay buffer was added to the wells. […] The reaction was stopped by adding 20 μL Streptavidin coupled imaging beads (25 mg/ml). After incubation for 30 minutes at room temperature in the dark, the 384 well plate was centrifuged at 1500 rpm for 3 minutes and was measured after at least 24 hrs by the LEADseeker™, measuring emission using a 610±20 nm pass filter.
# (§1) Raw data generated by the instrument were normalized to % Controlmin values, which were calculated as: % Controlmin=100*(x−mLC)/(mHC−mLC)
# (§2) where mLC and mHC were the means of the low control wells and high control wells on the plate, after manual exclusion of outliers. A plot of Controlmin versus test compound concentration was fitted to a 4-parameter logistic curve using a non-linear least squares regression method.
# [2] = biological target: FASN Keto-reductase Domain (hFASN enzyme, full length) (Homo sapiens (Human), UniProt P49327); assay: Fatty Acid Synthase Keto-reductase Domain (FASN KR) Inhibition; assay type: biochemical; conditions: NADPH oxidation at 340 nm, ethyl acetoacetate substrate
# Description: After 20 minutes incubation at room temperature the plate was measured again (T2).
# The decrease in absorbance was calculated as (Absorbance before incubation T1)−(Absorbance following incubation T2).
# as §1, §2
# Sequence of FASN Keto-reductase Domain (hFASN enzyme, full length) (P49327 whole entry, the tested form may be a part): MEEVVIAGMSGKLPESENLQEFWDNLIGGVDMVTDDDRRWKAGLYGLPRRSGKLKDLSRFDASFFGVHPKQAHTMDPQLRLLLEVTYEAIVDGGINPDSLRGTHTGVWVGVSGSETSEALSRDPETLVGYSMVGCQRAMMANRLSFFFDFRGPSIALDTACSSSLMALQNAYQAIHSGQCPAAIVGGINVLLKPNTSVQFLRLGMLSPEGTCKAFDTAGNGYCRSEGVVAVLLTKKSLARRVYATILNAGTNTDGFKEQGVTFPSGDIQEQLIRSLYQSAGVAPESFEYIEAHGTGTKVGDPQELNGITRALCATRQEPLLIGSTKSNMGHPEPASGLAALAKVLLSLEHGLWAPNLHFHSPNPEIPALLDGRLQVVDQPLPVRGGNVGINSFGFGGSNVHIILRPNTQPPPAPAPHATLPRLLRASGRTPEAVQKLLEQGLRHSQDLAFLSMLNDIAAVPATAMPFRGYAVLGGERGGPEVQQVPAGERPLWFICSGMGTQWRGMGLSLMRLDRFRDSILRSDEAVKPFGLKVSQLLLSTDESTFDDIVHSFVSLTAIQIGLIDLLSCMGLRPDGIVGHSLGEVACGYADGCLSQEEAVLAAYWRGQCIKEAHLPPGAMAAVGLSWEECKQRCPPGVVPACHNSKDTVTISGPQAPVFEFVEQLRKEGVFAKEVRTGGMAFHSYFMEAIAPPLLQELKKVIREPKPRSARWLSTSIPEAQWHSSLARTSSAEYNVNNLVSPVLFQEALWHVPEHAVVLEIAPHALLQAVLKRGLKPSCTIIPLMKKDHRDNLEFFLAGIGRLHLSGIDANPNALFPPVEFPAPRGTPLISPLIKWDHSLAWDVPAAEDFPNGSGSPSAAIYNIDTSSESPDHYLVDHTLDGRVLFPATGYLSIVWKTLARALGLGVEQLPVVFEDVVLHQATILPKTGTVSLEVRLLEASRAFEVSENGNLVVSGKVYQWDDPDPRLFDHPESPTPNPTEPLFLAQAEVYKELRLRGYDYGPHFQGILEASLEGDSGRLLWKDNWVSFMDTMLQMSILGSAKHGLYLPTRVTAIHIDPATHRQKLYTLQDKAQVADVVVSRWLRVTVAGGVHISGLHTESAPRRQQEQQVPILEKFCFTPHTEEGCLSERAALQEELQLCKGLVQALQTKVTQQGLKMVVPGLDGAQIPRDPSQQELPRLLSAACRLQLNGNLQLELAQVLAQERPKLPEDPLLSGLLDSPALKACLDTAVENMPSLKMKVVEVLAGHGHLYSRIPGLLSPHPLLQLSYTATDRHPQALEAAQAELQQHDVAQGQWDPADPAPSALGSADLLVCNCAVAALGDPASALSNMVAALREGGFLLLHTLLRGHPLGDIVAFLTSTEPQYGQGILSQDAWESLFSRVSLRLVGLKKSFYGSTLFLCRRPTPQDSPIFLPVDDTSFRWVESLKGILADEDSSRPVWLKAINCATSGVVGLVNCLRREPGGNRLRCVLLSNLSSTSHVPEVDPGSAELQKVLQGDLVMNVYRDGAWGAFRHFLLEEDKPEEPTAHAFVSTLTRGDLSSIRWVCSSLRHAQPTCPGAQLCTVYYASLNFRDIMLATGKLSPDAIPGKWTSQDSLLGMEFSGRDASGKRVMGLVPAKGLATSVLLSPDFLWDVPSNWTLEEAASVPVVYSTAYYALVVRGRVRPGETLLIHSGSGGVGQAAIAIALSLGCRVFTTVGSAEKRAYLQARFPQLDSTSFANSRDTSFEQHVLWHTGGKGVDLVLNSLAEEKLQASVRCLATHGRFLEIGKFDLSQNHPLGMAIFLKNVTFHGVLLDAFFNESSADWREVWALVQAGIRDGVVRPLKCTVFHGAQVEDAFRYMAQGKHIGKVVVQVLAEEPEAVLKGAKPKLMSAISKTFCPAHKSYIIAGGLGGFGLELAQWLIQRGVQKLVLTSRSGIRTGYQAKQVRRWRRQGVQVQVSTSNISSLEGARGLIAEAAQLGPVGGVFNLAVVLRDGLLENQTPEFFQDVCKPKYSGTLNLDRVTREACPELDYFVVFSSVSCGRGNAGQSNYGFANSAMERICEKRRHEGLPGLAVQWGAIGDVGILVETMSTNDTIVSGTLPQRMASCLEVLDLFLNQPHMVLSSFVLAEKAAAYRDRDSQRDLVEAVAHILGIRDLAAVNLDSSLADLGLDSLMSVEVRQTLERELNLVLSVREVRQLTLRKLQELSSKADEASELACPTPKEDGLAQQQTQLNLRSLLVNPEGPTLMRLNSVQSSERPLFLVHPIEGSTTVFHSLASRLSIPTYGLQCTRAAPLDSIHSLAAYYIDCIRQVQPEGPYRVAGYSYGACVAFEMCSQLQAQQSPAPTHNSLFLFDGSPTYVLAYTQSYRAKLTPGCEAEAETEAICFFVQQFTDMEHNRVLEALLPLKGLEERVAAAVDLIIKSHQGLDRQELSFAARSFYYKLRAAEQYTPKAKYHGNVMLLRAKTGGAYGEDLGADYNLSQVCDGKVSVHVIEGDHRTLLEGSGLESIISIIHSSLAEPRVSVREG
# Sequence of hFASN enzyme (full length) (P49327 whole entry, the tested form may be a part): as above
Human FASN pIC50 [1],FASN Keto-reductase Domain pIC50 [2],IC50 ([1]; read-out: Human FASN pIC50 (converted)) [nM],IC50 ([2]; read-out: FASN Keto-reductase Domain pIC50 (converted)) [nM],SMILES
7.20,6.96,,,"Cc1cc(-c2ccc3c(cnn3C)c2)ccc1C1=NC(C)(C)C(=O)N1C[C@@H]1CCN(C(=O)C2(C)CC2)C1 [Compound 80, (R)-4,4-dimethyl-2-(2-methyl-4-(1-methyl-1H-indazol-5-yl)phenyl)-1-((1-(1-methylcyclopropanecarbonyl)pyrrolidin-3-yl)methyl)-1H-imidazol-5(4H)-one]"
6.48,5.56,,,"CC1(C)N=C(c2ccc(-c3n[nH]c4ccccc34)cc2F)N(C[C@@H]2CCN(C(=O)C3CC3)C2)C1=O [Compound 57, (R)-1-((1-(cyclopropanecarbonyl)pyrrolidin-3-yl)methyl)-2-(2-fluoro-4-(1H-indazol-3-yl)phenyl)-4,4-dimethyl-1H-imidazol-5(4H)-one]"
7.16,6.73,,,"CC1(C)N=C(c2ccc(-c3c[nH]c4ccccc34)cc2F)N(C[C@@H]2CCN(C(=O)C3CC3)C2)C1=O [Compound 63, (R)-1-((1-(cyclopropanecarbonyl)pyrrolidin-3-yl)methyl)-2-(2-fluoro-4-(1H-indol-3-yl)phenyl)-4,4-dimethyl-1H-imidazol-5(4H)-one]"
6.85,6.15,,,"Cn1ncc2cc(-c3ccc(C4=NC(C)(C)C(=O)N4C[C@@H]4CCN(C(=O)C5CC5)C4)cc3)ccc21 [Compound 2, (R)-1-((1-(cyclopropanecarbonyl)pyrrolidin-3-yl)methyl)-4,4-dimethyl-2-(4-(1-methyl-1H-indazol-5-yl)phenyl)-1H-imidazol-5(4H)-one]"
6.69,6.45,,,"CC1(C)N=C(c2ccc(-c3ccc4cccnc4c3)cc2)N(CC2CN(C(=O)C3CC3)C2)C1=O [Compound 24, 1-((1-(cyclopropanecarbonyl)azetidin-3-yl)methyl)-4,4-dimethyl-2-(4-(quinolin-7-yl)phenyl)-1H-imidazol-5(4H)-one]"
7.28,6.90,,,"CC1(C)N=C(c2ccc(-c3ccc(-c4ccncc4)cc3)cc2F)N(C[C@@H]2CCN(C(=O)C3CC3)C2)C1=O [Compound 46, (R)-1-((1-(cyclopropanecarbonyl)pyrrolidin-3-yl)methyl)-2-(3-fluoro-4′-(pyridin-4-yl)-[1,1′-biphenyl]-4-yl)-4,4-dimethyl-1H-imidazol-5(4H)-one]"
7.05,6.81,,,"CC1(C)N=C(c2ccc(-c3ccc4cccnc4c3)cc2F)N(CC2CN(C(=O)C3CC3)C2)C1=O [Compound 39, 1-((1-(cyclopropanecarbonyl)azetidin-3-yl)methyl)-2-(2-fluoro-4-(quinolin-7-yl)phenyl)-4,4-dimethyl-1H-imidazol-5(4H)-one]"
7.47,7.30,,,"Cc1cc(-c2ccc3cc(F)ccc3c2)ccc1C1=NC(C)(C)C(=O)N1CC1CN(C(=O)C2(C)CC2)C1 [Compound 82, 2-(4-(6-fluoronaphthalen-2-yl)-2-methylphenyl)-4,4-dimethyl-1-((1-(1-methylcyclopropanecarbonyl)azetidin-3-yl)methyl)-1H-imidazol-5(4H)-one]"
6.75,6.46,,,"CC1(C)N=C(c2ccc(-c3ccc4cccc(F)c4c3)cc2)N(CC2CN(C(=O)C3CC3)C2)C1=O [Compound 40, 1-((1-(cyclopropanecarbonyl)azetidin-3-yl)methyl)-2-(4-(8-fluoronaphthalen-2-yl)phenyl)-4,4-dimethyl-1H-imidazol-5(4H)-one]"
6.65,6.32,,,"CC1(C)N=C(c2ccc(-c3ccc4cncnc4c3)cc2)N(C[C@@H]2CCN(C(=O)C3CC3)C2)C1=O [Compound 42, (R)-1-((1-(cyclopropanecarbonyl)pyrrolidin-3-yl)methyl)-4,4-dimethyl-2-(4-(quinazolin-7-yl)phenyl)-1H-imidazol-5(4H)-one]"
7.26,7.38,,,"Cn1cc(-c2ccc(-c3ccc(C4=NC(C)(C)C(=O)N4C[C@@H]4CCN(C(=O)C5(C)CC5)C4)c(F)c3)cc2)cn1 [Compound 74, (R)-2-(3-fluoro-4′-(1-methyl-1H-pyrazol-4-yl)-[1,1′-biphenyl]-4-yl)-4,4-dimethyl-1-((1-(1-methylcyclopropanecarbonyl)pyrrolidin-3-yl)methyl)-1H-imidazol-5(4H)-one]"
7.09,6.33,,,"CC1(C)N=C(c2ccc(-c3ccc4occc4c3)cc2)N(C[C@@H]2CCN(C(=O)C3CC3)C2)C1=O [Compound 3, (R)-2-(4-(benzofuran-5-yl)phenyl)-1-((1-(cyclopropanecarbonyl)pyrrolidin-3-yl)methyl)-4,4-dimethyl-1H-imidazol-5(4H)-one]"
6.25,5.77,,,"CC1(C)N=C(c2ccc(-c3nc4ccccc4o3)cc2F)N(CC2CN(C(=O)C3CC3)C2)C1=O [Compound 52, 2-(4-(benzo[d]oxazol-2-yl)-2-fluorophenyl)-1-((1-(cyclopropanecarbonyl)azetidin-3-yl)methyl)-4,4-dimethyl-1H-imidazol-5(4H)-one]"
,,155,537,"CC1(c2ccccc2)N=C(c2ccc(-c3ccc4occc4c3)cc2)N(C[C@@H]2CCN(C(=O)C3CC3)C2)C1=O (mixture of isomers) [Compound 5, (4RS)-2-(4-(Benzofuran-5-yl)phenyl)-1-(((R)-1-(cyclopropanecarbonyl)pyrrolidin-3-yl)methyl)-4-methyl-4-phenyl-1H-imidazol-5(4H)-one]"
7.34,7.13,,,"CC1(C)N=C(c2ccc(-c3ccc4cccc(F)c4c3)cc2)N(C[C@@H]2CCN(C(=O)C3CC3)C2)C1=O [Compound 41, (R)-1-((1-(cyclopropanecarbonyl)pyrrolidin-3-yl)methyl)-2-(4-(8-fluoronaphthalen-2-yl)phenyl)-4,4-dimethyl-1H-imidazol-5(4H)-one]"
7.12,7.06,,,"Cc1cc(-c2ccc(-c3cnn(C)c3)cc2)ccc1C1=NC(C)(C)C(=O)N1CC1CN(C(=O)C2(C)CC2)C1 [Compound 87, 4,4-dimethyl-2-(3-methyl-4′-(1-methyl-1H-pyrazol-4-yl)-[1,1′-biphenyl]-4-yl)-1-((1-(1-methylcyclopropanecarbonyl)azetidin-3-yl)methyl)-1H-imidazol-5(4H)-one]"
6.92,6.22,,,"CC1(C)N=C(c2ccc(-c3ccc4occc4c3)cc2)N(C[C@@H]2CCN(C(=O)C3(F)CC3)C2)C1=O [Compound 4, (R)-2-(4-(benzofuran-5-yl)phenyl)-1-((1-(1-fluorocyclopropanecarbonyl)pyrrolidin-3-yl)methyl)-4,4-dimethyl-1H-imidazol-5(4H)-one]"
7.10,6.80,,,"Cc1cc(-c2ccc3c(c2)ncn3C)ccc1C1=NC(C)(C)C(=O)N1C[C@@H]1CCN(C(=O)C2(C)CC2)C1 [Compound 85, (R)-4,4-dimethyl-2-(2-methyl-4-(1-methyl-1H-benzo[d]imidazol-5-yl)phenyl)-1-((1-(1-methylcyclopropanecarbonyl)pyrrolidin-3-yl)methyl)-1H-imidazol-5(4H)-one]"
